What was measured:
[1] = Interaction of S100p1-G and metabolite: streptavidin pull-down from BV2 cells and LC-MS; format: cell-based, mouse
Method: Interaction of S100p1-G and metabolite. Microglial BV2 cells (2×10^6) were transfected with biotinylated oligo S100p1-G or mutant using Lipofectamin RNAiMAX Reagent (Thermo Fisher) according to the manufacturer's instructions overnight at 37° C. […] of aged mouse fecal supernatant (from one-gram feces) was added into the cell growth medium. After six hours, the cells were collected in RIPA lysis buffer. […] of cell lysate was incubated with […] of DYNABEADS® Streptavidin beads (Thermo Fisher) at room temperature for 1 h. The bio-oligo complex was eluted with biotin (4 mg/ml)) in 25 mM Tris-HCL containing 0.3 M NaCl (PH 8.5) at 95° C. for 5 minutes. Metabolite analysis was performed with LC-MS.

[2] = Histological analysis (H&E) of brain; format: in vivo, mouse; settings: IAA to young mice, phage to aged mice; especially cerebrum and cerebellum
Method: Histological analysis. For hematoxylin and eosin (H&E) staining, tissues were fixed with buffered 10% formalin solution (SF93-20; Fisher Scientific, Fair Lawn, NJ) overnight at 4° C. Dehydration was achieved by immersion in a graded ethanol series of 70%, 80%, 95%, and 100% ethanol for 40 minutes each. Tissues were embedded in paraffin and subsequently cut into ultra-thin slices (5 μm) using a microtome. Tissues were deparaffinized by xylene (Fisher) and rehydrated by decreasing concentrations of ethanol and PBS. Tissue sections were stained with H&E and slides were scanned with an Aperio ScanScope. For frozen sections, tissues were fixed with periodate-lysine-paraformaldehyde (PLP) and dehydrated with 30% sucrose in PBS at 4° C. overnight. The sections were incubated overnight at 4° C. with anti-Iba1 (FujiFilm, #019-19741) and anti-CD-11b (Biolegend, #101204) diluted 1:100. The signal was visualized with the secondary antibodies conjugated to Fluors Alex-488 or Alex-594 (Invitrogen) and nuclei were stained with 4′,6-Diamidino-2-phenylindole dihydrochloride (DAPI). The slides were scanned using an Aperio ScanScope or visualized using confocal laser scanning microscopy (Nikon, Melville, NY).

microglia = assay: S100A8 and cleaved caspase-3 in brain microglia of treated mice (qPCR, western blot); format: in vivo, mouse
Method: Isolation of microglia, neuron, astrocytes, and oligodendrocytes from the brain. Mice were anaesthetized with a mixture of ketamine (16%) and xylazine (3%) by intraperitoneal injection and then sacrificed under basal conditions by transcardial perfusion with perfusion buffer (Ca^2+/Mg^2+ free HBSS containing 0.5 mM EGTA, 10 mM HEPES and 4.2 mM NaHCO3; pH 7.2). The perfused brain was removed and gently mechanically disaggregated with tweezers in dissociation buffer (HBSS containing 10 mM HEPES and 4.2 mM NaHCO3 supplemented with Type I collagenase (0.05%), Dispase II (25 mg/ml), DNase I (2.5 mg/ml), trypsin inhibitor ([…]); pH 7.5) followed by incubation at 37° C. for 1 hour. The tissue homogenate was centrifuged at 1,350×g for 5 minutes at 4° C. […]
Quantitative Real-Time PCR (qPCR) analysis of mRNA expression. […] For analysis of gene mRNA expression, […] of total RNA was reverse transcribed by SuperScript III reverse transcriptase (Invitrogen) and quantitation was performed using primers (Eurofins) with SSOADVANCED™ Universal SYBR Green Supermix (BioRad); GAPDH was used for normalization. […] Analysis and fold-change were determined using the comparative threshold cycle (Ct) method. […] Setting the expression value of GAPDH to 1.0, the relative expression values were calculated as […]. The change in mRNA expression was calculated as fold-change. […]

[3] = HPLC analysis of IAA and CA in serum and cerebrospinal fluid (CSF) of mice; format: in vivo, mouse
[4] = Morris water maze (MWM) test; format: in vivo, mouse
Method: Morris water maze (MWM) test. Mice were trained in a 122 cm diameter, 50 cm height open-field water maze with non-reflective interior surfaces. The pool water was filled with water maintained at 25±1° C. and mixed with non-toxic white tempera paint. Distinctive and extra-maze cues were marked on the wall at specific locations and were visible to the mice in the maze. Mice were removed from cages, placed into the water from quasi-random start points and allowed a maximum of 60 seconds to probe the escape platform. The inter interval of each trail remained for 15 seconds. For four consecutive days, four trials (training) were recorded each day with a final test on day 5 (FIG. 4A). Performance was evaluated by the mean escape latencies base on every training trial (Vorhees and Williams, 2006).

[5] = IAA to young mice, phage to aged mice, oral gavage two months

Question: With `CC(C)CCN` [IAA, isoamylamine] as the molecule, how does the “metabolite within the Bio-S100p1-G complex (LC-MS)” value ([1]; cell lysates) read?
Answer: only IAA interacts with S100p1-G

Question: What about the “neuronal loss and dying neurons in the brain (histology)” value [2] of the same molecule?
Answer: significantly promoted

Question: What about the “S100A8 and cleaved caspase-3 in the microglia” value (microglia; all five major regions of the brain, IAA oral gavage) of the same molecule?
Answer: induced

Question: And the “pass through the blood-brain barrier (BBB)” value ([3]; aged mice, serum and CSF, gut-derived metabolite)?
Answer: higher amounts than CA

Question: And the “IAA level in the serum (HPLC)” value ([3]; young mice gavage-given IAA, aged mice gavage-given phage^TSD-27)?
Answer: increased

Question: And the “swim speeds in MWM” value ([4]; IAA (0.5 g/kg) to young mice, phage^TSD-27 (1×10^9 pfu/mouse) to aged mice, oral gavage every other day, two months)?
Answer: reduced

Question: What about the “latency time to reach the platform in MWM” value [4, 5] of the same molecule?
Answer: induced

Question: And the “memory and learning (normalized test path length, MWM)” value [4, 5]?
Answer: induced the memory and learning loss

Question: With “S100p1-G: CTGTGGGCAG CTGGCCAAGC (SEQ ID NO: 8), S100A8 promoter −57 . . . −38 (DNA CTGTGGGCAGCTGGCCAAGC; chemistry not given here)” as the molecule, how does the “IAA recruited to the oligo complex (LC-MS after pull-down)” value ([1]; microglial cells, gut fecal supernatant, 6 h, biotinylated oligo) read?
Answer: recruited

Question: And the “expression of S100A8 and cleaved caspase-3 in microglia cells (qPCR, western blot)” value (microglia; young mice, gavage every other day for 2 months)?
Answer: prevented

Question: What about the “IAA in CSF (HPLC)” value ([3]; aged mice, intravenous oligo, twice a week for 2 months) of the same molecule?
Answer: decline

Question: And the “memory and spatial learning (MWM)” value ([4]; aged mice, intravenous, twice a week for 2 months)?
Answer: recovered

From patent publication US20250136997A1, “COMPOSITIONS FOR SEQUESTERING ISOAMYL AMINE AND METHODS OF USE THEREFOR” (University of Louisville Research Foundation, Inc., priority 2023, published 2025)
